Biological target: T1, AhR (Homo sapiens, UniProt P35869)
T1 sequence (P35869 11-848): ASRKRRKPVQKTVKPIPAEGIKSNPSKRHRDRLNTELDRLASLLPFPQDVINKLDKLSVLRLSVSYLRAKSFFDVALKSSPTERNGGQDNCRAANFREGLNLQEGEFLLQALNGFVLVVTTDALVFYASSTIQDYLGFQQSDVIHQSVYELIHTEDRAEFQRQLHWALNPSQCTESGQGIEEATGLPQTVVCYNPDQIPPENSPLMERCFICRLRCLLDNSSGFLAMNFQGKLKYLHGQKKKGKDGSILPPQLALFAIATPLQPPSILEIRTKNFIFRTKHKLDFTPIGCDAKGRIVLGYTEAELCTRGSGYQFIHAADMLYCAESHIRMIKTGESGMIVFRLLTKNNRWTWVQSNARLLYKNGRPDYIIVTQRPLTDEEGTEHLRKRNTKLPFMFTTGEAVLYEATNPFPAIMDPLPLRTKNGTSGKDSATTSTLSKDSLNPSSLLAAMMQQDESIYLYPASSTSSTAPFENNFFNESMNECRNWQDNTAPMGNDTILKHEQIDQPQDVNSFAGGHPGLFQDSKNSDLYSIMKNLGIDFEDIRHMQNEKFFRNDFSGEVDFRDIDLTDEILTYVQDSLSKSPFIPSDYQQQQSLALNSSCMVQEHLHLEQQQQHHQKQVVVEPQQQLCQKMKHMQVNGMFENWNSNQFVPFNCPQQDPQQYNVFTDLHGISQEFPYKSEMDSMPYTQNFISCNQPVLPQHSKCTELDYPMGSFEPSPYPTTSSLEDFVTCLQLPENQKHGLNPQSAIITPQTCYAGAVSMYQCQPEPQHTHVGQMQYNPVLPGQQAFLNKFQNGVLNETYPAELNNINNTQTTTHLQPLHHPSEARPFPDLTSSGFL
Experiment: In Vitro Assay 1: XRE-luciferase reporter assay, antagonism in human cell line (HepG2)
Conditions: Assay 1: AhR-Luc Human Antagonism (IC50, nM), values marked *: kynurenine 50 μM, 6 hours

`COC(=O)[C@H]1CN(c2cc(-c3ccc(Cl)cc3)nc(-c3cccnc3)n2)CCN1` [Example 78, methyl (R)-4-(6-(4-chlorophenyl)-2-(pyridin-3-yl)pyrimidin-4-yl)piperazine-2-carboxylate] gave an IC50 greater than 1000 nM.
Work on `Clc1ccc(-c2cc(N3CCN(c4cccc(Cl)c4Cl)CC3)nc(-c3cccnc3)n2)cc1` [Example 80, 4-(4-chlorophenyl)-6-(4-(2,3-dichlorophenyl)piperazin-1-yl)-2-(pyridin-3-yl)pyrimidine] yielded an IC50 greater than 1000 nM.
Work on `COc1ccc(OC)c(CN2CCN(c3cc(-c4ccc(Cl)cc4)nc(-c4cccnc4)n3)CC2)c1` [Example 81, 4-(4-chlorophenyl)-6-(4-(2,5-dimethoxybenzyl)piperazin-1-yl)-2-(pyridin-3-yl)pyrimidine] yielded an IC50 of less than 10 nM.
Work on `OCCN1CCN(c2cc(-c3ccc(Cl)cc3)nc(-c3cccnc3)n2)CC1` [Example 82, 2-(4-(6-(4-chlorophenyl)-2-(pyridin-3-yl)pyrimidin-4-yl)piperazin-1-yl)ethan-1-ol] yielded an IC50 of less than 10 nM.
`COc1ccccc1N1CCN(c2cc(-c3ccc(Cl)cc3)nc(-c3cccnc3)n2)CC1` [Example 83, 4-(4-chlorophenyl)-6-(4-(2-methoxyphenyl)piperazin-1-yl)-2-(pyridin-3-yl)pyrimidine] gave an IC50 of 10 to 100 nM.
Compound `CCOc1ccccc1N1CCN(c2cc(-c3ccc(Cl)cc3)nc(-c3cccnc3)n2)CC1` [Example 84, 4-(4-chlorophenyl)-6-(4-(2-ethoxyphenyl)piperazin-1-yl)-2-(pyridin-3-yl)pyrimidine] has an IC50 greater than 1000 nM.
With `Fc1ccccc1N1CCN(c2cc(-c3ccc(Cl)cc3)nc(-c3cccnc3)n2)CC1` [Example 85, 4-(4-chlorophenyl)-6-(4-(2-fluorophenyl)piperazin-1-yl)-2-(pyridin-3-yl)pyrimidine] the IC50 was 100 to 1000 nM.
With `O=C(c1ccco1)N1CCN(c2cc(-c3ccc(Cl)cc3)nc(-c3cccnc3)n2)CC1` [Example 86, (4-(6-(4-chlorophenyl)-2-(pyridin-3-yl)pyrimidin-4-yl)piperazin-1-yl)(furan-2-yl)methanone] the IC50 was 10 to 100 nM.
`Clc1ccc(-c2cc(N3CCN(CCc4ccccc4)CC3)nc(-c3cccnc3)n2)cc1` [Example 87, 4-(4-chlorophenyl)-6-(4-phenethylpiperazin-1-yl)-2-(pyridin-3-yl)pyrimidine] was tested, and the IC50 was 10 to 100 nM.
With `Clc1ccc(-c2cc(NCCN3CCNCC3)nc(-c3cccnc3)n2)cc1` [Example 88, 6-(4-chlorophenyl)-N-(2-(piperazin-1-yl)ethyl)-2-(pyridin-3-yl)pyrimidin-4-amine] the IC50 was greater than 1000 nM.
For `Clc1ccc(-c2cc(N3CCN(c4ccccn4)CC3)nc(-c3cccnc3)n2)cc1` [Example 89, 4-(4-chlorophenyl)-6-(4-(pyridin-2-yl)piperazin-1-yl)-2-(pyridin-3-yl)pyrimidine], the IC50 was 10 to 100 nM.
Work on `Clc1ccc(-c2cc(N3CCN(CCN4CCOCC4)CC3)nc(-c3cccnc3)n2)cc1` [Example 91, 4-(2-(4-(6-(4-chlorophenyl)-2-(pyridin-3-yl)pyrimidin-4-yl)piperazin-1-yl)ethyl)morpholine] yielded an IC50 of 10 to 100 nM.
Work on `Clc1ccc(-c2cc(N3CCN(C/C=C/c4ccccc4)CC3)nc(-c3cccnc3)n2)cc1` [Example 93, trans-4-(4-chlorophenyl)-6-(4-cinnamylpiperazin-1-yl)-2-(pyridin-3-yl)pyrimidine] yielded an IC50 of 10 to 100 nM.
`Clc1ccc(-c2cc(N3CCN(c4ccccc4)CC3)nc(-c3cccnc3)n2)cc1` [Example 95, 4-(4-chlorophenyl)-6-(4-phenylpiperazin-1-yl)-2-(pyridin-3-yl)pyrimidine] showed an IC50 of 10 to 100 nM.
With `CCCN1CCN(c2cc(-c3ccc(Cl)cc3)nc(-c3cccnc3)n2)CC1` [Example 96, 4-(4-chlorophenyl)-6-(4-propylpiperazin-1-yl)-2-(pyridin-3-yl)pyrimidine] the IC50 was less than 10 nM.
In the case of `Clc1ccc(-c2cc(N3CCN(Cc4ccc5c(c4)OCO5)CC3)nc(-c3cccnc3)n2)cc1` [Example 97, 4-(4-(benzo[d][1,3]dioxol-5-ylmethyl)piperazin-1-yl)-6-(4-chlorophenyl)-2-(pyridin-3-yl)pyrimidine], the IC50 is reported as less than 10 nM.
`OC[C@@H]1CN(c2cc(-c3ccc(Cl)cc3)nc(-c3cccnc3)n2)CCN1` [Example 98, (S)-(4-(6-(4-chlorophenyl)-2-(pyridin-3-yl)pyrimidin-4-yl)piperazin-2-yl)methanol] gave an IC50 greater than 1000 nM.
`Fc1ccc(N2CCN(c3cc(-c4ccc(Cl)cc4)nc(-c4cccnc4)n3)CC2)cc1` [Example 99, 4-(4-chlorophenyl)-6-(4-(4-fluorophenyl)piperazin-1-yl)-2-(pyridin-3-yl)pyrimidine] gave an IC50 of 10 to 100 nM.
`CN1C(C)(C)CC(Nc2cc(-c3ccc(Cl)cc3)nc(-c3cccnc3)n2)CC1(C)C` [Example 100, 6-(4-chlorophenyl)-N-(1,2,2,6,6-pentamethylpiperidin-4-yl)-2-(pyridin-3-yl)pyrimidin-4-amine] was tested, and the IC50 was greater than 1000 nM.
Work on `Clc1ccc(-c2cc(NC3CCCNC3)nc(-c3cccnc3)n2)cc1` (stereo not drawn) [Example 101, 6-(4-chlorophenyl)-N-(piperidin-3-yl)-2-(pyridin-3-yl)pyrimidin-4-amine] yielded an IC50 of 100 to 1000 nM.
`Clc1ccc(-c2cc(N3CCNCC3)nc(-c3cccnc3)n2)cc1` [Example 102, 4-(4-chlorophenyl)-6-(piperazin-1-yl)-2-(pyridin-3-yl)pyrimidine] was tested, and the IC50 was 100 to 1000 nM.
Compound `C[C@@H]1CN(c2cc(-c3ccc(Cl)cc3)nc(-c3cccnc3)n2)C[C@H](C)N1` [Example 104, Cis-4-(4-chlorophenyl)-6-(3,5-dimethylpiperazin-1-yl)-2-(pyridin-3-yl)pyrimidine] has an IC50 greater than 1000 nM.
Compound `CCN1CCN(c2cc(-c3ccc(Cl)cc3)nc(-c3cccnc3)n2)CC1` [Example 106, 4-(4-chlorophenyl)-6-(4-ethylpiperazin-1-yl)-2-(pyridin-3-yl)pyrimidine] has an IC50 of 10 to 100 nM.
`CC(=O)N1CCN(c2cc(-c3ccc(Cl)cc3)nc(-c3cccnc3)n2)CC1` [Example 108, 1-(4-(6-(4-chlorophenyl)-2-(pyridin-3-yl)pyrimidin-4-yl)piperazin-1-yl)ethan-1-one] was tested, and the IC50 was less than 10 nM.
`CCC1CN(c2cc(-c3ccc(Cl)cc3)nc(-c3cccnc3)n2)CCN1` (stereo not drawn) [Example 109, 4-(4-chlorophenyl)-6-(3-ethylpiperazin-1-yl)-2-(pyridin-3-yl)pyrimidine] was tested, and the IC50 was greater than 1000 nM.
With `CCOC(=O)N1CCN(c2cc(-c3ccc(Cl)cc3)nc(-c3cccnc3)n2)CC1` [Example 110, ethyl 4-(6-(4-chlorophenyl)-2-(pyridin-3-yl)pyrimidin-4-yl)piperazine-1-carboxylate] the IC50 was less than 10 nM.
With `O=C(O)C1CN(c2cc(-c3ccc(Cl)cc3)nc(-c3cccnc3)n2)CCN1` (stereo not drawn) [Example 111, 4-(6-(4-chlorophenyl)-2-(pyridin-3-yl)pyrimidin-4-yl)piperazine-2-carboxylic acid] the IC50 was greater than 1000 nM.
Compound `COC(=O)C1CNCCN1c1cc(-c2ccc(Cl)cc2)nc(-c2cccnc2)n1` (stereo not drawn) [Example 112, methyl 1-(6-(4-chlorophenyl)-2-(pyridin-3-yl)pyrimidin-4-yl)piperazine-2-carboxylate] has an IC50 greater than 1000 nM.
`Clc1ccc(-c2cc(N3CCNC[C@@H]3c3ccccc3)nc(-c3cccnc3)n2)cc1` [Example 113, (S)-4-(4-chlorophenyl)-6-(2-phenylpiperazin-1-yl)-2-(pyridin-3-yl)pyrimidine] showed an IC50 greater than 1000 nM.
With `Cc1ccccc1N1CCN(c2cc(-c3ccc(Cl)cc3)nc(-c3cccnc3)n2)CC1` [Example 114, 4-(4-chlorophenyl)-2-(pyridin-3-yl)-6-(4-(o-tolyl)piperazin-1-yl)pyrimidine] the IC50 was greater than 1000 nM.
